From US12350364B2, “Lipid body compositions, products made therefrom, methods of making same, and methods of use” (Xylome Corporation, priority 2019, dated 2025)

Experiments:
Type in all cases: physicochemical
[1] = Lidocaine binding and partitioning into lipid bodies (UV 260 nm after 0.2 μm filtration)
Excerpt: Lipid bodies were cleared of excipients and antimicrobial preservative by undergoing a 1:10 wash in ethanol followed by rehydration in distilled water.

[2] = Drug loading into lipid-body composition and release into PBS (UV-VIS / HPLC); details: for drug released, concentration: 6-fold dilution
[3] = Uptake of hydrophobic dyes by lipid bodies (mixing, centrifugation/flotation); details: for uptake of hydrophobic model compound into lipid bodies: about 50% lipid bodies, mixed about 10 minutes, centrifuged
Method: In this example, fermentations of different engineered hyper lipogenic Lipomyces starkeyi were used to create lipid bodies. Using the engineered hyper-lipogenic strain XYL-403, compositions of lipid bodies were prepared with a diameter from 6.9+/−1.4 microns when measured under a microscope using a calibrated Petroff Hauser counter. Following the initial preparation of lipid bodies, the lipid bodies were fused using high levels of salt at 1M NaCl, solvents such as ethanol at 20% (v/v) in water, and application of shear force using centrifugation (FIG. 12A). Homogenization, filtration, or chemical treatments can be used as alternatives to or in additional centrifugation to induce shear force. Thus, compositions utilizing even larger lipid bodies (e.g., between 12 to 50 μm) can be developed using physically modified and merged lipid bodies. The advantages of larger lipid bodies can be extended using high total volumes of drug carrying capacity.
This example opens the possibility of even higher volumetric carrying capacity of lipid-body compositions of the invention when expanded to the upper limit of known diameter.
In this example, lipid bodies at about 50% concentration in base composition of example 1A were subjected to the addition of concentrated Nile red, which had been solubilized in DMSO and used in this example as a surrogate for a hydrophobic compound or hydrophobic drug. The lipid-body composition was mixed with Nile red for 10 minutes and centrifuged. After centrifugation, the lipid bodies separate by flotation and all of the Nile red entered into the lipid bodies. The lipid bodies remain hydrophilic on the exterior of the lipid body spheres and continue to feel aqueous.
In another version of this example, lipid bodies at approximately 50% by dry weight were mixed with a second hydrophobic model drug compound, Sudan black. […] Similar to the Nile red results, Sudan black is shown to be taken up by lipid bodies (FIG. 13B).

[4] = 100 μL of 5 mg/mL stock per 1 g lipid bodies, 300 mg in 1 mL PBS, 15 min, room temperature, UV 343 nm
[5] = Example 19: dry powder loading plus 33 μL PBS, UV 350 nm

Q: For `CCN(CC)CC(=O)Nc1c(C)cccc1C` [Lidocaine], which “Lidocaine in Aqueous Cream Fraction” value ([1]; 500 μg Lidocaine in Salt (1M NaCl)) is on record?
A: 72%

Q: And the “Lidocaine in Aqueous Cream Fraction” value ([1]; 500 μg Lidocaine in Water)?
A: 83%

Q: And the “Lidocaine in Aqueous Cream Fraction” value ([1]; Control: 500 μg Lidocaine without Lipid Bodies and Filtered)?
A: 100%

Q: What does the source list for `CCCCc1nc(Cl)c(CO)n1Cc1ccc(-c2ccccc2-c2nn[nH]n2)cc1` [Losartan]?
A: Losartan released into 1 mL PBS, concentration ([2]; 100 μL of 5 mg/mL stock per 1 g lipid bodies, 300 mg in 1 mL PBS, HPLC 210 nm, 3.9 minutes): 54.4 µg/mL; total release ([2]; Losartan, 300 mg in 1 mL PBS, HPLC 210 nm): 36.3%

Q: Which “uptake of hydrophobic model compound into lipid bodies” value [3] does the source give for `CCN(CC)c1ccc2nc3c4ccccc4c(=O)cc-3oc2c1` [Nile red] here?
A: quantitatively complete

Q: Which “uptake of hydrophobic model compound into lipid bodies” value [3] does the source give for `CC1(C)Nc2cccc3c(N=Nc4ccc(N=Nc5ccccc5)c5ccccc45)ccc(c23)N1` [Sudan black] here?
A: essentially all of the Sudan black loaded into the lipid bodies

Q: What about the “taken up into the lipid bodies” value ([3]; merged very large lipid bodies (1M NaCl, 20% ethanol, centrifugation)) of the same molecule?
A: ~100%

Q: What does the source list for `CC(C)OC(=O)CCC/C=C\C[C@@H]1[C@@H](/C=C/[C@@H](O)COc2cccc(C(F)(F)F)c2)[C@H](O)C[C@@H]1O` [Travoprost]?
A: Travoprost released ([2]; first procedure: 2 μL of 25 mg/mL per 1 g lipid bodies, 300 mg in 1 mL PBS, HPLC 210 nm): 50%; Travoprost release ([2]; second procedure: 250 μg evaporated concentrate per 1 g lipid bodies, 100 mg in 1 mL PBS, HPLC): 60.7%

Q: For `CCN(CC)CCCC(C)Nc1ccnc2cc(Cl)ccc12` (stereo not drawn) [chloroquine], which total release [2, 4] is on record?
A: 8.1%

Q: And the “drug released, concentration” value [2, 4]?
A: 12.1 µg/mL

Q: What about the total release ([2]; Example 21, repeat dilution (1 to 3 then 1 to 2)) of the same molecule?
A: 8.1%

Q: With `COc1cc2c(c(OC)c1OC)-c1ccc(OC)c(=O)cc1[C@@H](NC(C)=O)CC2` [colchicine] as the molecule, how does the colchicine released ([2]; Example 15: 55% aqueous/45% drug-containing lipid-body composition, 100 μL of 2 mg/mL stock per 1 g lipid body, 300 mg in 1 mL PBS, 15 min, room temperature, UV 350 nm) read?
A: 5.9 µg/mL

Q: And the drug release ([2]; Example 15: 55% aqueous/45% drug-containing lipid-body composition, 300 mg in 1 mL PBS, 15 min, room temperature, UV 350 nm)?
A: 9.8%

Q: And the colchicine released ([2]; Example 16: 62% liquid/38% composition, HPLC)?
A: 41%

Q: And the drug released ([2]; Example 16: 62% liquid/38% composition, HPLC (350 nm, 2.9 minutes))?
A: 61.5 µg/mL

Q: What about the “released, % of the total colchicine” value ([2]; Example 16: 62% liquid/38% composition, UV 350 nm) of the same molecule?
A: 34.5%

Q: What about the drug released ([2]; Example 16: 62% liquid/38% drug-containing lipid-body composition, 5 mg/mL stock, 200 μL PBS added, 1 mL PBS, room temperature, UV 350 nm) of the same molecule?
A: 51.8 µg/mL

Q: And the “released, % of the total compound loaded” value ([2]; Example 17: 67% liquid/33% composition, UV 350 nm)?
A: 15.1%

Q: What about the colchicine released ([2]; Example 17: 67% liquid/33% drug-containing lipid-body composition, 178 μL PBS added, UV 350 nm) of the same molecule?
A: 22.6 µg/mL

Q: What about the colchicine released ([2]; Example 18: 30 mg dry powder mixed into 1 g lipid bodies, 300 mg in 2 mL PBS, 15 min, room temperature, UV 350 nm) of the same molecule?
A: 3,390 μg/mL

Q: What about the “released, % of the total colchicine present” value ([2]; Example 18: dry powder loading, 50% lipid-body composition, UV 350 nm) of the same molecule?
A: 37.6%

Q: And the colchicine released [2, 5]?
A: 4000 µg/mL

Q: What about the “released, % of the total colchicine” value [2, 5] of the same molecule?
A: 44%

Q: For `CCN(CCO)CCCC(C)Nc1ccnc2cc(Cl)ccc12` (stereo not drawn) [hydroxychloroquine], which total release [2, 4] is on record?
A: 10.4%

Q: What about the “drug released, concentration” value [2, 4] of the same molecule?
A: 5.66 µg/mL
